According to EPA's CvTdb concentration-time database (doi:10.1093/toxsci/kfy020):

How the values were obtained:
Experiment in all cases: concentration in plasma after dosing
rat [1] = conditions: Sprague-Dawley
rat [2] = conditions: dosed: Imazalil, 1.0000000000 mg/kg, iv, male, Sprague-Dawley
rat [3] = conditions: dosed: Imazalil, 1.0000000000 mg/kg, iv, male, Sprague-Dawley; remark: listed apart in the source
rat [4] = conditions: dosed: Nilvadipine, 10.0000000000 mg/kg, oral, male, Sprague-Dawley
rat [5] = conditions: dosed: Propyzamide, 0.6 mg/kg, iv, male, Sprague-Dawley
rat [6] = conditions: dosed: Propyzamide, 3.2120000000 mg/kg, oral, male, Sprague-Dawley
rat [7] = conditions: dosed: Propyzamide, 3.0000000000 mg/kg, oral, male, Sprague-Dawley
rat [8] = conditions: dosed: Propyzamide, 0.6 mg/kg, iv, male, Sprague-Dawley; remark: listed apart in the source
rat [9] = conditions: dosed: Propyzamide, 3.0000000000 mg/kg, oral, male, Sprague-Dawley; remark: listed apart in the source
rat [10] = conditions: dosed: Propyzamide, 3.0000000000 mg/kg, oral, male, Sprague-Dawley; remark: listed apart in the source
rat [11] = conditions: dosed: Propyzamide, 3.2120000000 mg/kg, oral, male, Sprague-Dawley; remark: listed apart in the source
rat [12] = conditions: dosed: Pyrithiobac sodium, 1.037 mg/kg, oral, male, Sprague-Dawley
rat [13] = conditions: dosed: Pyrithiobac sodium, 1.037 mg/kg, oral, male, Sprague-Dawley; remark: listed apart in the source
rat [14] = conditions: dosed: Resmethrin, 4.0000000000 mg/kg, oral, male, Sprague-Dawley
rat [15] = conditions: dosed: Resmethrin, 0.8000000000 mg/kg, iv, male, Sprague-Dawley
rat [16] = conditions: dosed: Resmethrin, 4.0000000000 mg/kg, oral, male, Sprague-Dawley; remark: listed apart in the source
rat [17] = conditions: dosed: Resmethrin, 4.0000000000 mg/kg, oral, male, Sprague-Dawley; remark: listed apart in the source
rat [18] = conditions: dosed: Resmethrin, 0.8000000000 mg/kg, iv, male, Sprague-Dawley; remark: listed apart in the source

C=CCOC(Cn1ccnc1)c1ccc(Cl)cc1Cl (centres undefined) [Imazalil]
concentration in plasma [ng/mL], rat [1], dosed: Imazalil, male
Conditions	0.25 h	0.5 h	1 h	2 h	4 h	5 min	10 min
1.0000000000 mg/kg, iv	–	25.6	20.7	7.2	3.6	139	63.9
5.0000000000 mg/kg, oral	9.7	11.4	7.9	1	–	–	–

concentration in plasma [ng/mL]
Conditions	0.5 h	1 h	2 h	4 h	5 min	10 min
rat [2]	23.8	12.2	6.6	3.4	125	73.5
rat [3]	33.3	22	6.8	5.3	162	71.5

COC(=O)C1=C(C#N)NC(C)=C(C(=O)OC(C)C)C1c1cccc([N+](=O)[O-])c1 (centres undefined) [Nilvadipine]
concentration in plasma [ng/mL], rat [1], dosed: Nilvadipine
Conditions	0.25 h	0.5 h	1 h	2 h	4 h	5 min	6 h	8 h	10 h
0.1000000000 mg/kg, iv, female	16	8	4.43	2.48	0.674	27.3	–	–	–
0.1000000000 mg/kg, iv, male	11.8	7.16	3.5	2.19	0.824	29.2	0.387	–	–
10.0000000000 mg/kg, oral, male	34.6	44.3	14.6	10.7	3.01	–	4.89	2.84	12.2

rat [4]
Conditions	concentration in plasma [ng/mL]
0.25 h	271
0.5 h	160
1 h	75.8
2 h	99.2
4 h	27.8
6 h	22.1
8 h	15
10 h	1.26

C#CC(C)(C)NC(=O)c1cc(Cl)cc(Cl)c1 [Propyzamide]
concentration in plasma [ng/mL]
Conditions	rat [5]	rat [6]	rat [7]	rat [8]	rat [9]	rat [10]	rat [11]
0.25 h	–	228	62.6	–	125	43.1	217
0.5 h	65.8	302	83.7	46.9	118	104	244
1 h	49.6	262	61.9	23.8	90.6	75.4	205
2 h	19.8	158	29.5	9.3	50.7	46.3	98.2
4 h	7.8	234	49.3	1.2	17.4	54	159
5 min	156	–	–	119	–	–	–
8 h	–	116	50.9	1.4	24.1	44.1	148
10 min	131	–	–	122	–	–	–
12 h	0.6	–	6.1	–	8.2	8.2	–
24 h	–	3.06	–	–	–	1.5	2.89
48 h	–	0.269	–	–	–	–	0.376
72 h	–	0.0997	–	–	–	–	0.0426

rat [1], dosed: Propyzamide, male
Conditions	concentration in plasma [ng/mL]
0.25 h, 3.0000000000 mg/kg, oral	96.6
0.25 h, 3.2120000000 mg/kg, oral	252
0.5 h, 0.6 mg/kg, iv	47.6
0.5 h, 3.0000000000 mg/kg, oral	130
0.5 h, 3.2120000000 mg/kg, oral	359
1 h, 0.6 mg/kg, iv	15.1
1 h, 3.0000000000 mg/kg, oral	103
1 h, 3.2120000000 mg/kg, oral	323
2 h, 3.0000000000 mg/kg, oral	58.4
2 h, 3.2120000000 mg/kg, oral	153
4 h, 0.6 mg/kg, iv	3.1
4 h, 3.0000000000 mg/kg, oral	39.7
4 h, 3.2120000000 mg/kg, oral	174
5 min, 0.6 mg/kg, iv	165
8 h, 3.0000000000 mg/kg, oral	49.7
8 h, 3.2120000000 mg/kg, oral	83.5
10 min, 0.6 mg/kg, iv	117
12 h, 3.0000000000 mg/kg, oral	16.8
24 h, 3.0000000000 mg/kg, oral	1.2
24 h, 3.2120000000 mg/kg, oral	2.23
48 h, 3.2120000000 mg/kg, oral	0.327
72 h, 3.2120000000 mg/kg, oral	0.0846

COc1cc(OC)nc(Sc2cccc(Cl)c2C(=O)[O-])n1.[Na+] [Pyrithiobac sodium]
concentration in plasma [ng/mL]
Conditions	0.25 h	0.5 h	1 h	2 h	4 h	8 h	24 h
rat [12]	1400	1190	1270	331	154	65.6	1.06
rat [13]	1380	1560	1090	437	112	31.9	0.833

rat [1], dosed: Pyrithiobac sodium, 1.037 mg/kg, oral, male
Conditions	concentration in plasma [ng/mL]
0.25 h	1080
0.5 h	1060
1 h	1190
2 h	458
4 h	126
8 h	37
24 h	0.55
72 h	0.206

CC(C)=CC1C(C(=O)OCc2coc(Cc3ccccc3)c2)C1(C)C (centres undefined) [Resmethrin]
concentration in plasma [ng/mL]
Conditions	0.25 h	0.5 h	1 h	2 h	4 h	5 min	8 h	10 min	12 h
rat [14]	13.4	11.8	44.1	12.4	5.6	–	4	–	–
rat [15]	–	12.1	0.7	5.6	–	52.5	–	20.6	–
rat [16]	7	10.7	39	12.8	2.3	–	4.7	–	1.8
rat [17]	17.4	15.8	17.7	10.6	4.2	–	4.6	–	–
rat [18]	–	9.1	4.1	1	–	52.7	–	25	–

concentration in plasma [ng/mL], rat [1], dosed: Resmethrin, male
Conditions	0.25 h	0.5 h	1 h	2 h	4 h	5 min	8 h	10 min
0.8000000000 mg/kg, iv	–	13.9	1.6	8.1	–	72.9	–	30.4
4.0000000000 mg/kg, oral	12.6	37.2	32.8	13.5	13.7	–	6.1	–
